Laboratory results taken from patent US8017611B2, “Pyridine and pyrazine derivatives -083” (AstraZeneca AB, priority 2007, dated 2011).
Marks after values point to notes of the source that are not given here.

The compounds below were run against T1, recombinant Axl tyrosine kinase (Homo sapiens, UniProt P30530) (assay: In vitro Axl kinase assay (AlphaScreen), Test (a)). Conditions: 1 μM; mean calculated from a larger number of replicates than the first value.
T1 construct: encompassing amino acids 473 to 894 of Axl; GST (N); made in house; host or cells: SF126 insect cells
T1 sequence (P30530 473-894): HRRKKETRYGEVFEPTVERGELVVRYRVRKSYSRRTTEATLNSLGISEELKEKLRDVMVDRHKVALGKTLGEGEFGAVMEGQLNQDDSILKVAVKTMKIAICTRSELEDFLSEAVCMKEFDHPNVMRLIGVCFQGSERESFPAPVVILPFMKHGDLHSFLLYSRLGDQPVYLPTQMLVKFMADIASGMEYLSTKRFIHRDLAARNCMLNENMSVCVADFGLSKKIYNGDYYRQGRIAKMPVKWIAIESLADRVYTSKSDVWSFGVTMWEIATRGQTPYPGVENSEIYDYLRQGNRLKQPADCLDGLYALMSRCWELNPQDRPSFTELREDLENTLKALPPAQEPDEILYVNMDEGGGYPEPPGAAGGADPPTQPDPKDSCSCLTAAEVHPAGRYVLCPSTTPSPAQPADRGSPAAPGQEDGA
Assay type: biochemical
Experimental: Test compounds were prepared as 10 mM stock solutions in dimethylsulphoxide (DMSO) and diluted in DMSO as required. Aliquots (120 nl) of compound dilutions were filled into the wells of a Greiner 384-well low volume (LV) white polystyrene plate (Greiner Bio-one) using acoustic dispensing (Labcyte Echo 550). A 10 μl mixture of recombinant purified Axl enzyme, biotinylated peptide substrate (Biotin poly-GAT; CisBio, Catalogue No. 61GATBLB), 0.2 μM adenosine triphosphate (ATP) and a buffer solution [comprising 20 mM Tris-HCl pH 7.5 buffer, 0.01% v/v Tween, 5 mM dithiothreitol (DTT) and 10 mM manganese chloride] was incubated with the compounds at room temperature for 20 minutes.
Control wells that produced a minimum signal corresponding to 100% inhibited enzyme were created by adding 10 μM of Staurosporine.
The percentage kinase inhibition value is the percentage of Axl tyrosine kinase activity inhibited by the test compound at a concentration of 1 μM.
With `Nc1ncc(-c2cccc(N3CCOCC3)c2)cc1-c1nc2ncccc2o1` [Example 10A.1] the “% Axl tyrosine kinase inhibition at 1 μM concentration (second value, †)” value was 52.6%. For `Nc1ncc(-c2cccc(N3CCNCC3)c2)nc1-c1nc2ccccc2o1` [Example 20.2], the “% Axl tyrosine kinase inhibition at 1 μM concentration (second value, †)” value was 99.3%.

Same assay, conditions: 1 μM; mean calculated from a larger number of replicates than the first value; read-out: % Axl tyrosine kinase inhibition at 1 μM concentration (second value, †)
`CC(C)(C)OC(=O)N1CCC(n2cc(-c3cnc(N)c(-c4nc5ccccc5o4)n3)cn2)CC1` [Example 15, Tert-butyl 4-[4-[5-amino-6-(1,3-benzoxazol-2-yl)pyrazin-2-yl]pyrazol-1-yl]piperidine-1-carboxylate] was tested, and the inhibition at 1 µM was 99.4%.

Same assay, conditions: Test (a); read-out: IC50 versus Axl tyrosine kinase
For `COc1cccc2nc(-c3cc(-c4cn(C5CCN(C)CC5)nc4CO)cnc3N)oc12` [Example 41.42], the IC50 was ~200 pM.

Same assay, conditions: test compound at 1 μM; first value quoted
In the case of `CN1CC(Cn2cc(-c3cnc(N)c(-c4nc5ccccc5o4)c3)cn2)C1` [Example 41.11], the “% Axl tyrosine kinase inhibition at 1 μM concentration” value is reported as 74.7%. `COCC(=O)N1CCC(n2cc(-c3cnc(N)c(-c4nc5cccnc5o4)c3)cn2)CC1` [Example 57.5] was tested, and the “% Axl tyrosine kinase inhibition at 1 μM concentration” value was 99.8%. In the case of `CN1CCN(c2cccc(-c3cnc(N)c(-c4nc5ccccc5o4)c3)c2)CC1` [Example 2.53], the “% Axl tyrosine kinase inhibition at 1 μM concentration” value is reported as 4.2**** %. `CN(C)S(=O)(=O)c1cccc(-c2cnc(N)c(-c3nc4ccccc4o3)n2)c1` [Example 20.1] was tested, and the “% Axl tyrosine kinase inhibition at 1 μM concentration” value was 91.8%. For `N#Cc1cccc(-c2cnc(N)c(-c3nc4cnccc4o3)c2)c1` [Example 8A.11], the “% Axl tyrosine kinase inhibition at 1 μM concentration” value was 89.6%. With `Nc1ncc(-c2ccc(N3CCNCC3)cc2)nc1-c1nc2ccccc2o1` [Example 20.11] the “% Axl tyrosine kinase inhibition at 1 μM concentration” value was 100.0%. In the case of `CN1CCN(C(=O)c2ccc(-c3cnc(N)c(-c4nc5cccnc5o4)c3)cc2)CC1` [Example 45A.49], the “% Axl tyrosine kinase inhibition at 1 μM concentration” value is reported as 96.1%. `Nc1ncc(-c2cnn(C3CCNCC3)c2)cc1-c1nc2cccc(F)c2o1` [Example 38.3] was tested, and the “% Axl tyrosine kinase inhibition at 1 μM concentration” value was 100.0%. `CN(C)CCCN(C)C(=O)c1ccc(-c2cnc(N)c(-c3nc4cccnc4o3)c2)cc1` [Example 45A.54] was tested, and the “% Axl tyrosine kinase inhibition at 1 μM concentration” value was 97.8%. For `COc1cccc2nc(-c3cc(-c4cn(C5CCN(C)CC5)nc4CO)cnc3N)oc12` [Example 41.42], the “% Axl tyrosine kinase inhibition at 1 μM concentration” value was 100.0%. `Nc1ncc(-c2ccc(C(=O)N3CCN(Cc4ccncc4)CC3)cc2)cc1-c1nc2cccnc2o1` [Example 45A.62] was tested, and the “% Axl tyrosine kinase inhibition at 1 μM concentration” value was 97.3%. `COc1cc(-c2cnc(N)c(-c3nc4ncccc4o3)c2)ccc1OCCCN1CCS(=O)(=O)CC1` [Example 43C.16] was tested, and the “% Axl tyrosine kinase inhibition at 1 μM concentration” value was 98.1%. With `COc1cc(-c2cnc(N)c(-c3nc4ncccc4o3)c2)ccc1OC[C@H]1CCCN1` [Example 43C.24] the “% Axl tyrosine kinase inhibition at 1 μM concentration” value was 99.6%. In the case of `CC(=O)NCC(=O)N1CCC(n2cc(-c3cnc(N)c(-c4nc5ncccc5o4)c3)cn2)CC1` [Example 59.3], the “% Axl tyrosine kinase inhibition at 1 μM concentration” value is reported as 98.9%. `CN(C)S(=O)(=O)c1ccc(-c2cnc(N)c(-c3nc4ccccc4o3)c2)cc1` [Example 2.28] was tested, and the “% Axl tyrosine kinase inhibition at 1 μM concentration” value was 85.1%. With `C[C@H](O)C(=O)N1CCC(n2cc(-c3cnc(N)c(-c4nc5ccccc5o4)c3)c(CO)n2)CC1` [Example 67.2] the “% Axl tyrosine kinase inhibition at 1 μM concentration” value was 100.0%. In the case of `N#Cc1cccc(-c2cnc(N)c(-c3nc4ccccc4o3)c2)c1` [Example 2.40], the “% Axl tyrosine kinase inhibition at 1 μM concentration” value is reported as 40.7%. In the case of `CO[C@H](C)C(=O)N1CCC(n2cc(-c3cnc(N)c(-c4nc5ncccc5o4)c3)cn2)CC1` [Example 59.2], the “% Axl tyrosine kinase inhibition at 1 μM concentration” value is reported as 98.1%. In the case of `N#CCC1(n2cc(-c3cnc(N)c(-c4nc5ccccc5o4)c3)cn2)CCNCC1` [Example 25.1], the “% Axl tyrosine kinase inhibition at 1 μM concentration” value is reported as 95.0%. For `CNCCCOc1ccc(-c2cnc(N)c(-c3nc4ncccc4o3)c2)cc1` [Example 43B.32], the “% Axl tyrosine kinase inhibition at 1 μM concentration” value was 98.6%. With `Nc1ncc(-c2cccc(N3CCOCC3)c2)cc1-c1nc2ncccc2o1` [Example 10A.1] the “% Axl tyrosine kinase inhibition at 1 μM concentration” value was 55.3%. `COc1cc(-c2cnc(N)c(-c3nc4ncccc4o3)c2)ccc1OC1CC2CCC(C1)N2C` (centres unmarked) [Example 43C.19] was tested, and the “% Axl tyrosine kinase inhibition at 1 μM concentration” value was 99.7%. For `Nc1ncc(-c2ccc(C(=O)N3CCC(N4CCOCC4)CC3)cc2)cc1-c1nc2cccnc2o1` [Example 45A.64], the “% Axl tyrosine kinase inhibition at 1 μM concentration” value was 98.6%. With `CN1CCC(N(C)C(=O)c2ccc(-c3cnc(N)c(-c4nc5cccnc5o4)c3)cc2)CC1` [Example 45A.31] the “% Axl tyrosine kinase inhibition at 1 μM concentration” value was 95.9%. With `Nc1ncc(-c2cccc(CN3CCCCC3)c2)cc1-c1nc2cnccc2o1` [Example 8A.20] the “% Axl tyrosine kinase inhibition at 1 μM concentration” value was 95.2%. `COc1cccc2nc(-c3cc(-c4cn(C5CCNCC5)nc4CO)cnc3N)oc12` [Example 62.13] was tested, and the “% Axl tyrosine kinase inhibition at 1 μM concentration” value was 100.0%. With `COCc1nn(C2CCN(C)CC2)cc1-c1cnc(N)c(-c2nc3cccc(OC)c3o2)c1` [Example 41.43] the “% Axl tyrosine kinase inhibition at 1 μM concentration” value was 100.0%. `NC(=O)CN1CCC(n2cc(-c3cnc(N)c(-c4nc5ncccc5o4)c3)cn2)CC1` [Example 53.3] was tested, and the “% Axl tyrosine kinase inhibition at 1 μM concentration” value was 98.8%. For `CC(O)C(=O)N1CCC(n2cc(-c3cnc(N)c(-c4nc5ccccc5o4)c3)cn2)CC1` (centres unmarked) [Example 34.3], the “% Axl tyrosine kinase inhibition at 1 μM concentration” value was 99.7%. In the case of `CN1CCCCC1CNC(=O)c1ccc(-c2cnc(N)c(-c3nc4cccnc4o3)c2)cc1` (centres unmarked) [Example 45A.26], the “% Axl tyrosine kinase inhibition at 1 μM concentration” value is reported as 99.6%. For `Nc1ncc(-c2ccc(C(=O)N3CC[C@H](N4CCCC4)C3)cc2)cc1-c1nc2cccnc2o1` [Example 45A.22], the “% Axl tyrosine kinase inhibition at 1 μM concentration” value was 97.1%. With `NCCOc1ccc(-c2cnc(N)c(-c3nc4ncccc4o3)c2)cc1` [Example 43B.25] the “% Axl tyrosine kinase inhibition at 1 μM concentration” value was 97.5%. In the case of `Cc1ccc(S(=O)(=O)N2CCOCC2)cc1-c1cnc(N)c(-c2nc3cnccc3o2)c1` [Example 8A.10], the “% Axl tyrosine kinase inhibition at 1 μM concentration” value is reported as 13.1***** %. With `Nc1ncc(-c2cnn(C3CCN(C(=O)CO)CC3)c2)cc1-c1nc2ccccc2o1` [Example 34.2] the “% Axl tyrosine kinase inhibition at 1 μM concentration” value was 100.0%. With `Nc1ncc(-c2ccc(C(=O)N3CCN(Cc4cccnc4)CC3)cc2)cc1-c1nc2cccnc2o1` [Example 45A.61] the “% Axl tyrosine kinase inhibition at 1 μM concentration” value was 95.1%. `Nc1ncc(-c2ccc(C(=O)N3CCCC3CN3CCOCC3)cc2)cc1-c1nc2cccnc2o1` (centres unmarked) [Example 45A.16] was tested, and the “% Axl tyrosine kinase inhibition at 1 μM concentration” value was 94.2%. In the case of `CN1CCC[C@H]1COc1ccc(-c2cnc(N)c(-c3nc4ncccc4o3)c2)cc1` [Example 43B.5], the “% Axl tyrosine kinase inhibition at 1 μM concentration” value is reported as 99.4%. In the case of `COc1cc(-c2cnc(N)c(-c3nc4ncccc4o3)c2)ccc1OC1CCN(C)CC1` [Example 43C.11], the “% Axl tyrosine kinase inhibition at 1 μM concentration” value is reported as 98.9%. With `CC(C)(C)OC(=O)N1CCC(C(=O)Nc2cccc(-c3cnc(N)c(-c4nc5cccnc5o4)c3)c2)CC1` [Example 9A.3] the “% Axl tyrosine kinase inhibition at 1 μM concentration” value was 73.4%. `CN1CCN(C(=O)c2cccc(-c3cnc(N)c(-c4nc5cccnc5o4)c3)c2)CC1` [Example 9A.18] was tested, and the “% Axl tyrosine kinase inhibition at 1 μM concentration” value was 80.8%. For `Nc1ncc(-c2ccc(C(=O)NCC3CCCCN3)cc2)cc1-c1nc2cccnc2o1` (centres unmarked) [Example 45A.104], the “% Axl tyrosine kinase inhibition at 1 μM concentration” value was 99.8%. `CN(C)C(=O)[C@@H]1CCCN1C(=O)c1ccc(-c2cnc(N)c(-c3nc4cccnc4o3)c2)cc1` [Example 45A.75] was tested, and the “% Axl tyrosine kinase inhibition at 1 μM concentration” value was 91.6%. For `Nc1ncc(-c2ccc(OCCC3CCCCN3)cc2)cc1-c1nc2ncccc2o1` (centres unmarked) [Example 43B.40], the “% Axl tyrosine kinase inhibition at 1 μM concentration” value was 97.7%. In the case of `CN1CCN(C(=O)c2cccc(-c3cnc(N)c(-c4nc5cnccc5o4)c3)c2)CC1` [Example 8A.19], the “% Axl tyrosine kinase inhibition at 1 μM concentration” value is reported as 94.3%. `Nc1ncc(-c2cccc(N3CCNCC3)c2)nc1-c1nc2ccccc2o1` [Example 20.2] was tested, and the “% Axl tyrosine kinase inhibition at 1 μM concentration” value was 99.6%. With `CN(C)CCN(C)C(=O)c1ccc(-c2cnc(N)c(-c3nc4ncccc4o3)c2)cc1` [Example 45B.1] the “% Axl tyrosine kinase inhibition at 1 μM concentration” value was 98.1%.

Same assay, conditions: test compound at 1 μM; first value quoted; read-out: % Axl tyrosine kinase inhibition at 1 μM concentration
`CC(C)(C)OC(=O)N1CCC(n2cc(-c3cnc(N)c(-c4nc5ccccc5o4)n3)cn2)CC1` [Example 15, Tert-butyl 4-[4-[5-amino-6-(1,3-benzoxazol-2-yl)pyrazin-2-yl]pyrazol-1-yl]piperidine-1-carboxylate] showed an inhibition at 1 µM of 93.1%. Work on `Nc1ncc(-c2cnn(C3CCNCC3)c2CO)cc1-c1nc2ccccc2o1` [Example 61, [4-[6-amino-5-(1,3-benzoxazol-2-yl)-3-pyridyl]-2-(4-piperidyl)pyrazol-3-yl]methanol] yielded an inhibition at 1 µM of 99.9%. `CC(C)(C)OC(=O)N1CCC(n2cc(-c3cnc(N)c(-c4nc5ccccc5o4)c3)cn2)CC1` [Example 2.2, tert-butyl 4-[4-[6-amino-5-(1,3-benzoxazol-2-yl)-3-pyridyl]pyrazol-1-yl]piperidine-1-carboxylate] showed an inhibition at 1 µM of 99.5%. `Nc1ncc(-c2cnn(CCO)c2)cc1-c1nc2ccccc2o1` [Example 28, 2-[4-[6-amino-5-(1,3-benzoxazol-2-yl)-3-pyridyl]pyrazol-1-yl]ethanol] gave an inhibition at 1 µM of 99.3%.

Same assay, conditions: test compound at 30 μM
`CN1CCN(c2cccc(-c3cnc(N)c(-c4nc5ccccc5o4)c3)c2)CC1` [Example 2.53] was tested, and the “% of Axl tyrosine kinase activity inhibited at a concentration of 30 μM” value was “****the compound disclosed in Example 2.53 inhibited 82% of Axl tyrosine kinase activity at a concentration of 30 μM”. In the case of `Cc1ccc(S(=O)(=O)N2CCOCC2)cc1-c1cnc(N)c(-c2nc3cnccc3o2)c1` [Example 8A.10], the “% of Axl tyrosine kinase activity inhibited at a concentration of 30 μM” value is reported as “*****the compound disclosed in Example 8A.10 inhibited 79.5% of Axl tyrosine kinase activity at a concentration of 30 μM”.
